Data taken from US5336485A, “Method for protecting animals against tacrine induced cytotoxic injury using sterol compounds” (priority 1993, dated 1994).
Structures can show the parent of a compound that is named as a salt.

Columns and labels:
liver [1] = assay: CCl4 induced hepatotoxicity in rats (serum AST/ALT); format: in vivo, rat; conditions: for Serum AST Levels: listed as Cholesteryl Succinate free acid
Method in brief: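 Male Sprague-Dawley rats received test compounds i.p. at 100 mg/kg 20–24 h before oral CCl4 (2.9 g/kg or 1 g/kg). Serum AST and ALT were measured 48 h after CCl4 challenge.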

male Sprague-Dawley rats = assay: CCl4 induced lethality in rats; format: in vivo, rat
rat hepatocytes [2] = assay: EMS-induced cytotoxicity (LDH leakage/cell death) in rat hepatocyte suspensions; conditions: for Cell Death: 50 mM EMS, 5 Hrs, alpha-TS 25, methyl ester 50, cholesteryl succinate 100, monomethyl/dimethyl succinate 250 μM; for inhibition at 25 µM: Rattus norvegicus, Hepatocyte
Procedure: To determine if alpha-TS is a cytoprotective agent under physiological conditions, liver cells were incubated with Waymouth's medium containing approximately 1 mM extracellular Ca^2+ in the presence and absence of alpha-TS.
(§1) At each time-point, rapid separation of viable from non-viable hepatocytes and medium was accomplished by the dibutyl phthalate centrifugation method. Cell viability was monitored hourly by measuring LDH leakage with a Cobas Analyzer and intracellular [K^+ ]with a flame photometer. LDH was routinely measured in the medium while intracellular K^+ was measured in the 10% perchloric acid lysate of viable cells. Lipid peroxidation was determined by measuring TBA reactants in the medium. […] The samples were diluted with 0.3 ml 1% ascorbate in 0.1 M SDS, 0.4 ml ethanol, sonicated and extracted once with 0.8 ml hexane. Next, the hexane extract was evaporated to dryness with N2, the residue dissolved in 2.5% ascorbate in methanol (1 ml) and analyzed (100 μl) by high-performance liquid chromatograph (HPLC). […] The mobile phase, 95% MeOH was run isocratically and the HPLC retention times for delta and alpha-tocopherol were approximately eleven and sixteen minutes, respectively. […] Following the addition of 0.2 ml 4 M HC1, the neutralized KOH-MeOH extracted with 0.8 ml hexane. […] A standard curve for each tocopherol congener was run with every assay. […] Only viable cells were monitored in the laboratory procedures.
To determine the relative cytoprotective potency of various tocopherol derivatives, the effect of varying doses of a tocopherol analog on the protection against EMS-induced toxicity was examined in vitro on rat hepatocyte suspensions. Specifically, the following ionizable tocopherol congeners were tested: alpha-TS, alpha tocopheryl glutarate (alpha-TG), and alpha tocopheryl phosphate (alpha-TP). […] 0.1 nmoles is the lower detection limit.
In vitro experiments were conducted with a variety of different tocopherol and succinate analogs to determine which were protective against EMS induced toxicity. After five hours of incubation with 50 mM EMS and 25μM of a tocopherol or succinate analog, cytoprotection was determined by comparing the percentage of LDH leakage from control hepatocytes (vehicle only, assumed 100% protection) with the EMS only treated cells (assumed 0% protection).
An in vitro experiment with rat hepatocyte suspensions was performed to determine the effect of esterase inhibitors on alpha-TS.
(§2) Rat hepatocyte suspensions were subjected to 50 mM EMS and the percentage of cell death, the percentage of intracellular K^+ (a metabolic parameter as discussed above), the depletion of ATP and the effect on lipid peroxidation were monitored.

CDF1 mice = assay: Doxorubicin lethality in CDF1 mice (normal tissue); format: in vivo, mouse; conditions: 100 mg/kg ip 20 h prior, DOX 10, 15, 20, 25 mg/kg
Procedure: (§3) The experiments were conducted in accordance with NCI Protocol 1,100. FIGS. 8a-d show the experimental results obtained when male CDF1 mice (n=6) received either vehicle only or 100mg/kg body weight i.p. dose of either alpha-TS or cholesteryl succinate 20 hours prior to DOX administration. FIGS. 8a-d respectively show the results obtained when the mice received 10, 15, 20, and 25 mg DOX/kg body weight. […] FIGS. 9a-d show the experimental results obtained when male CDF1 mice ([…]) were injected (i.p.) with 10^6 murine L1210 leukemia cells followed immediately by an injection of alpha-TS tris salt (100 mg/kg, i.p.) or saline injection (vehicle), and twenty hours later (Day=0) each mouse in three of the groups was i.p. injected with 15, 20, or 25 mg DOX/kg body weight ([…]). Survival was monitored for twenty days.

rat hepatocytes [3] = assay: EMS-induced lipid peroxidation in rat hepatocyte suspensions; format: cell-based; conditions: 50 mM EMS
Procedure: as §1, §2

liver [4] = assay: THA-induced hepatotoxicity in rats (serum AST); format: in vivo, rat; conditions: 100 mg/kg ip
Procedure: FIGS. 10 and 11 show the results of in vivo experiments where male Sprague-Dawley rats were given an oral dose of 15 or 30 mg THA/kg body weight, respectively. […] The serum AST levels were determined with respect to time after the THA challenge.

L1210 leukemia cells [5] = assay: Doxorubicin in L1210 leukemia bearing CDF1 mice; format: in vivo, mouse; conditions: DOX 10 mg/kg
Procedure: as §3

liver [6] = assay: Acetaminophen-induced hepatotoxicity in rats (AST/ALT); format: in vivo, rat
Procedure: In vivo experiments were performed to determine if alpha-TS administration protects the liver from the hepatotoxic effects of acetaminophen. Acetaminophen is a commonly used analgesic that is metabolized to a reactive intermediate. […] The other group of male Sprague-Dawley rats received only the acetaminophen challenge. Forty eight hours after the challenge the rats were sacrificed and the levels of aspartate aminotransferase (AST) and alanine aminotransferase (ALT) were measured.
FIGS. 10 and 11 show the results of in vivo experiments where male Sprague-Dawley rats were given an oral dose of 15 or 30 mg THA/kg body weight, respectively. In the experiments, one group of rats was provided with an i.p. dose of 100 mg cholesteryl succinate tris salt/kg body weight 20 hours prior to the THA challenge, another group of rats only received the THA challenge, and the last group of rats acted as a control and were not challenged. The serum AST levels were determined with respect to time after the THA challenge.

[7] = system: L1210 murine leukemia cells; assay: Inhibition of L1210 leukemia cell growth in vitro; format: cell-based, mouse
Procedure: Similar in vitro experiments were conducted with cholesteryl succinate tris salt and alpha-TS tris salt.

variety of cell types = conditions: cited from earlier work
rat hepatocytes [8] = assay: Cellular alpha-tocopherol and tocopherol ester content of rat hepatocytes; conditions: 25 μM, Table 2
Procedure: as §1
The hepatocytes were subsequently exposed to 50mM EMS for three hours.

[9] = Tissue distribution of alpha-tocopherol and alpha-tocopherol ester in rats; format: in vivo, rat; conditions: 100 mg/kg ip, 24 h
Procedure: 100 mg/kg body weight of a tocopherol analog was administered to Sprague-Dawley rats using a peanut oil:ethanol vehicle (3:2). Twenty four hours later the rats were sacrificed and the accumulation of the tocopherol analog in the liver was determined.
A similar in vivo experiment to that discussed in conjunction with Table 5 was performed to determine if other tissues accumulate alpha-TS. Male Sprague-Dawley rats were given a 100 mg/kg dose of alpha-TS using a variety of chemical forms and vehicles. A variety of techniques were used to administer the alpha-TS. Twenty four hours later the rats were sacrificed and the tissues were tested for alpha-TS accumulation.

L1210 leukemia cells [10] = conditions: 100 mg/kg ip
rat hepatocytes [11] = assay: Intracellular K+ of rat hepatocytes exposed to EMS; format: cell-based; conditions: 50 mM EMS, 5 Hrs; concentrations as cell death (Table 15)
Excerpt: Medzhradsky, Biochem. Med. 13:164 (1975), has noted that the cell's ability to maintain its intracellular concentration of potassium (K^+) is an excellent indicator of the metabolic integrity of the cell. A concentration gradient exists for K^+ with greater concentrations found intracellularly. To maintain this gradient, the cell is dependent on the action of the Na^+ -K^+ ATPase pump and an adequate supply of ATP. As cellular ATP levels decline, the ATPase pump is unable to maintain the gradient resulting in the loss of intracellular K^+ by equilibration with the extracellular space. Because the maintenance of cellular metabolic processes is essential to the continual repair and survival of cells, organ systems, and organisms, the effect of alpha-TS on the metabolic integrity of rat liver cells during a toxic insult was investigated by measuring intracellular K^+ levels. […] At each time-point, rapid separation of viable from non-viable hepatocytes and medium was accomplished by the dibutyl phthalate centrifugation method. Cell viability was monitored hourly by measuring LDH leakage with a Cobas Analyzer and intracellular [K^+ ]with a flame photometer. […] Lipid peroxidation was determined by measuring TBA reactants in the medium. […] Alltech, Avondale, Pa.). […] Following the addition of 0.2 ml 4 M HC1, the neutralized KOH-MeOH extracted with 0.8 ml hexane. […] A standard curve for each tocopherol congener was run with every assay. […] Only viable cells were monitored in the laboratory procedures.

[12] = system: gluconeogenesis or ATP production; conditions: cited from earlier work
[13] = 100 mg/kg, single dose 24 h prior, CCl4 […]
[14] = 100 mg/kg ip 20 hrs prior, 48 h after 2 g/kg AP (Table 23)
[15] = 100 mg/kg ip 20 h prior, 48 h after 1 g/kg CCl4 (Table 20)
[16] = 100 mg/kg ip, 48 h after 1 g/kg CCl4 (Table 33)
[17] = 100 mg/kg ip, no CCl4 (Table 20)
[18] = 100 mg/kg ip, no CCl4 (Table 33)
[19] = rat plasma, 100 mg/kg ip 24 h prior, 48 h after […] CCl4
[20] = 100 mg/kg ip 20 h prior, 48 h after 1 g/kg CCl4 (Table 27)

CC(C)CCC[C@@H](C)[C@H]1CC[C@H]2[C@@H]3CC=C4C[C@@H](OC(=O)CCC(=O)O)CC[C@]4(C)[C@H]3CC[C@]12C [Cholesteryl Succinate]
Serum AST Levels (liver [1]; 100 mg/kg ip 20 h prior, 24 hrs after 2 g/kg CCl4 (Table 26)): 1.84 ± 1.13 10^3 units/L
Serum AST Levels (liver [1]; 100 mg/kg ip 20 h prior, 48 hrs after 2 g/kg CCl4 (Table 26)): 1.90 ± 2.64 10^3 units/L
Days Survived After CCl4 Treatment (male Sprague-Dawley rats; [13]): > 7 days
Cell Death (rat hepatocytes [2]): 48 ± 4%
inhibition at 25 µM (rat hepatocytes [2]; 5 h, read-out: Percent Cytoprotection): 30 ± 22%
survival after DOX, normal mice (FIGS. 8a-d) (CDF1 mice): survived significantly longer
Lipid Peroxidation (rat hepatocytes [3]; 5 Hrs, concentrations as cell death (Table 15)): 11.3 ± 4.2 nmolMDA/10^6 cells
protection against THA hepatotoxicity (FIG. 10) (liver [4]; THA 15 mg/kg): protects against the hepatotoxicity resulting from THA
protection against THA hepatotoxicity (FIG. 11) (liver [4]; THA 30 mg/kg): protects against the hepatotoxicity resulting from THA

COc1cccc2c1C(=O)c1c(O)c3c(c(O)c1C2=O)C[C@@](O)(C(=O)CO)C[C@@H]3O[C@H]1C[C@H](N)[C@H](O)[C@H](C)O1 [DOX, doxorubicin, reference compound]
survival of tumor bearing mice given DOX (L1210 leukemia cells [5]): dramatically increased

O=C(O)CCC(=O)O [Tris Succinate, reference compound]
Serum ALT Level (liver [6]; [14]): 623 ± 339 Units/L
Serum AST Level (liver [6]; [14]): 2286 ± 1190 Units/L
Serum ALT Level (liver [6]; 100 mg/kg ip, no AP (Table 23)): 50 ± 7 Units/L
Serum AST Level (liver [6]; 100 mg/kg ip, no AP (Table 23)): 93 ± 34 Units/L
ALT (liver [1]; [15]): 3.617 ± 0.858 10^3 units/L
AST (liver [1]; [15]): 11.22 ± 3.15 10^3 units/L
ALT (liver [1]; [16]): 2.135 ± .881 10^3 units/L
AST (liver [1]; [16]): 8.32 ± 2.65 10^3 units/L
ALT (liver [1]; [17]): 0.048 ± 0.005 10^3 units/L
AST (liver [1]; [17]): 0.11 ± 0.02 10^3 units/L
ALT (liver [1]; [18]): 0.058 ± .001 10^3 units/L
AST (liver [1]; [18]): 0.15 ± 5.02 10^3 units/L
growth rate of L1210 cells (FIG. 7) [7]: no effect on the growth rate

CC(=O)Oc1c(C)c(C)c2c(c1C)CC[C@@](C)(CCC[C@H](C)CCC[C@H](C)CCCC(C)C)O2 [alpha-TA, d-alpha-tocopherol acetate, reference compound]
ALT (liver [1]; [19]): 6,108 ± 417 Units/L
AST (liver [1]; [19]): 20,233 ± 3525 Units/L
protection against carcinogenic effects of radiation and cancer causing chemicals (variety of cell types): ineffective
Protection from CCl4 (male Sprague-Dawley rats; 100 mg/kg ip (Table 5)): No
Days Survived After CCl4 Treatment (male Sprague-Dawley rats; 100 mg/kg ip, 24 h prior, CCl4 2.2 g/kg): > 7 days
Days Survived After CCl4 Treatment (male Sprague-Dawley rats; 100 mg/kg ip, 24 h prior, CCl4 3.8 g/kg): 2 days
Days Survived After CCl4 Treatment (male Sprague-Dawley rats; 100 mg/kg ip, 24 h prior, CCl4 5.0 g/kg): 2 days
Days Survived After CCl4 Treatment (male Sprague-Dawley rats; 100 mg/kg ip, 24 h prior, CCl4 […]): 3 days
inhibition at 25 µM (rat hepatocytes [2]; read-out: % Protection, 25 μM, 50 mM EMS): 12%
Cellular Tocopherol ester (rat hepatocytes [8]): 1.7 nmoles/10^6 cells
Cellular alpha-T (rat hepatocytes [8]): 0.3 nmoles/10^6 cells
inhibition at 25 µM (rat hepatocytes [3]; Rattus norvegicus, Hepatocyte, 25 μM): 14%
Liver Concentration Ester [9]: 92 ± 6 nmol/g

Cc1c(C)c2c(c(C)c1OC(=O)CCC(=O)O)CC[C@@](C)(CCC[C@H](C)CCC[C@H](C)CCCC(C)C)O2 [alpha-TS tris salt, Alpha tocopheryl succinate tris salt]
ALT (liver [1]; [15]): 0.371 ± 0.246 10^3 units/L
AST (liver [1]; [15]): 1.86 ± 1.11 10^3 units/L
ALT (liver [1]; [20]): 0.52 ± 0.16 10^3 units/L
AST (liver [1]; [20]): 0.79 ± 0.26 10^3 units/L
inhibition in vivo at 100 mg/kg (liver [1]; Rattus norvegicus, 100 mg/kg ip 20 h prior, 48 h after 1 g/kg CCl4, read-out: % Hepatoprotection): 80%
growth rate of L1210 cells (FIG. 7) [7]: significantly suppress the growth rate of L1210 cells
Survival Time (L1210 leukemia cells [10]): 7.6 ± 0.6 days

COC(=O)CCC(=O)Oc1c(C)c(C)c2c(c1C)CCC(C)(CCCC(C)CCCC(C)CCCC(C)C)O2 (stereo not drawn) [methyl ester of alpha-TS, Alpha-Tocopherol Succinate Methyl Ester]
% Initial Intracellular [K+] (rat hepatocytes [11]): 67 ± 4 % Initial
Days Survived After CCl4 Treatment (male Sprague-Dawley rats; [13]): > 7 days
Cell Death (rat hepatocytes [2]): 30 ± 1%
inhibition at 25 µM (rat hepatocytes [2]; 5 h, read-out: Percent Cytoprotection, 25 μM, 50 mM EMS, 5 h): 22 ± 15%

COC(=O)CCC(=O)O [methyl ester succinate, methyl ester of succinate]
concentration required to stimulate gluconeogenesis or ATP production [12]: Millimolar concentrations
